Measurements from patent EP0892802B1, “SPIRO(CYCLOPENT(B)INDOLE-PIPERIDINES) AND N-PHENYL-HYDRAZON INTERMEDIATES FOR THEIR PREPARATION, BOTH BEING ACETYLCHOLINESTERASE AND MAO INHIBITORS” (priority 1996, dated 1997).

What was measured:
monoamine oxidase-A = target: T1, monoamine oxidase-A (Rattus norvegicus, UniProt P21396); assay: in vitro inhibition of monoamine oxidase assay (modified Kindt), MAO-A; type: biochemical, Male Wistar rats; details: rat whole brain minus cerebellum, mitochondrial P2 pellet; substrate [3H]-5-hydroxytryptamine 200 µM; preincubated 15 minutes, incubated 30 minutes at 37°C; log-probit analysis
T1 construct: serves as the tissue source for mitochondrial monoamine oxidase; from tissue; host or cells: rat whole brain minus cerebellum, P2 (crude mitochondrial) pellet
T1 sequence (P21396 1-526): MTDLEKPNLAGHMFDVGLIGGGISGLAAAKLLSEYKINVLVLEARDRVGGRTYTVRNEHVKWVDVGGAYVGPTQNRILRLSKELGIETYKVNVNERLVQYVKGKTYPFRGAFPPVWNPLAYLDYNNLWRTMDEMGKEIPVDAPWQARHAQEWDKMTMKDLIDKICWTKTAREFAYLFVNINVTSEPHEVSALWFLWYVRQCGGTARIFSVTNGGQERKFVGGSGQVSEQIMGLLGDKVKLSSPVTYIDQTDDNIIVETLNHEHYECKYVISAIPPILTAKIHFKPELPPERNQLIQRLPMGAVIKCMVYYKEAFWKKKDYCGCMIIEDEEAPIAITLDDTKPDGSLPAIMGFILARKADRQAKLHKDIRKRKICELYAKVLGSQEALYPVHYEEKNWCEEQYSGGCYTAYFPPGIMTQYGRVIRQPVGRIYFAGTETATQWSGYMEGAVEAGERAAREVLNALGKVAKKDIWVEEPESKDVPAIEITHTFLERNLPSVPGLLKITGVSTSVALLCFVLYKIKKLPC
Procedure: (§1) In this assay, a modification of an assay described by M. V. Kindt, et al., Europ.
The following reagents are prepared: • 1. Phosphate buffer (0.5 M), pH 7.4; 134.4 g dibasic sodium phosphate heptahydrate q.s. to 1 liter in distilled water (A) 17.3 g monobasic sodium phosphate q.s. to 250 ml in distilled water (B) Adjust pH of A to 7.4 by slowly adding B (volumes as needed) Dilute 1:10 in distilled water (0.05 M phosphate buffer, pH 7.4) • 2. 0.25 M Sucrose (phosphate buffered): 21.4 g sucrose, q.s. to 250 ml with 0.05 M phosphate buffer • 3. Substrate for monoamine oxidase-A: • a. serotonin creatine sulphate (5-hydroxytryptamine) is obtained from Sigma Chemical Company. A 5 mM stock solution is made up in 0.01 N-hydrochloric acid. The solution is used to dilute the specific activity of the [^3H]-hydroxytryptamine. • b. [^3H]-5-hydroxytryptamine binoxalate (20-30 Ci/mmol) is obtained from New England Nuclear. • c. Add 12 µl of [^3H]-5-hydroxytryptamine to 2 ml of the 5 mM 5-hydroxytryptamine solution. (Final amine concentration in the assay is 200 µM: see below.) • 4. Substrate for monoamine oxidase-B • a. β-phenethylamine is obtained from Sigma Chemical Company. A 5 mM stock solution is made up in 0.01 N-hydrochloric acid. The solution is used to dilute the specific activity of the [^14C]-β-phenethylamine. • b. β-[ethyl-1-^14C]-phenethylamine hydrochloride (40-50 mCi/mmol) is obtained from New England Nuclear. • c. Add 12 µl of [^14C]-β-phenethylamine to 2 ml of the 5 mM β-phenethylamine solution. (Final amine concentration in the assay is 200 µM: see below.) • 5. Equal amounts of monoamine oxidase-A (5-hydroxytryptamine) and monoamine oxidase-B (β-phenethylamine) substrates are combined for simultaneously testing both monoamine oxidase types, i.e., mixed stock solution of 2.5 mM 5-hydroxytryptamine and 2.5 mM β-phenethylamine. 40 µl of this mixed solution gives a 200 µM final concentration of each amine in the assay. […]

monoamine oxidase-B = target: T2, monoamine oxidase-B (Rattus norvegicus, UniProt P19643); assay: in vitro inhibition of monoamine oxidase assay (modified Kindt), MAO-B; type: biochemical, Male Wistar rats; details: rat whole brain minus cerebellum, mitochondrial P2 pellet; substrate [14C]-β-phenethylamine 200 µM; preincubated 15 minutes, incubated 30 minutes at 37°C; log-probit analysis
T2 construct: serves as the tissue source for mitochondrial monoamine oxidase; from tissue; host or cells: rat whole brain minus cerebellum, P2 (crude mitochondrial) pellet
T2 sequence (P19643 1-520): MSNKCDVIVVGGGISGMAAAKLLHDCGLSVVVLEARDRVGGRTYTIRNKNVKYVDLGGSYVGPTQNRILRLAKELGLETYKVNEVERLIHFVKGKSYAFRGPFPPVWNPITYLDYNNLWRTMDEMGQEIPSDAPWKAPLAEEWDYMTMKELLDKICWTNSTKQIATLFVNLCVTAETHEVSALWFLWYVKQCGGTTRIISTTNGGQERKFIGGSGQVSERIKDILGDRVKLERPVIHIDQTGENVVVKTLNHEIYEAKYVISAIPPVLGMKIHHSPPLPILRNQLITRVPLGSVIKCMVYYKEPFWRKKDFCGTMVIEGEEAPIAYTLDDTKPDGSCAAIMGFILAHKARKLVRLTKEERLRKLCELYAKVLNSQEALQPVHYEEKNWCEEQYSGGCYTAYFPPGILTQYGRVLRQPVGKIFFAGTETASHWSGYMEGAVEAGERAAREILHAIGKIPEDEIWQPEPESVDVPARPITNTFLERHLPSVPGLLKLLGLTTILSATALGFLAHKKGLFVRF
Procedure: as §1
The following reagents are prepared: • 1. Phosphate buffer (0.5 M), pH 7.4; 134.4 g dibasic sodium phosphate heptahydrate q.s. to 1 liter in distilled water (A) 17.3 g monobasic sodium phosphate q.s. to 250 ml in distilled water (B) Adjust pH of A to 7.4 by slowly adding B (volumes as needed) Dilute 1:10 in distilled water (0.05 M phosphate buffer, pH 7.4) • 2. 0.25 M Sucrose (phosphate buffered): 21.4 g sucrose, q.s. to 250 ml with 0.05 M phosphate buffer • 3. Substrate for monoamine oxidase-A: • a. serotonin creatine sulphate (5-hydroxytryptamine) is obtained from Sigma Chemical Company. A 5 mM stock solution is made up in 0.01 N-hydrochloric acid. The solution is used to dilute the specific activity of the [^3H]-hydroxytryptamine. • b. [^3H]-5-hydroxytryptamine binoxalate (20-30 Ci/mmol) is obtained from New England Nuclear. • c. Add 12 µl of [^3H]-5-hydroxytryptamine to 2 ml of the 5 mM 5-hydroxytryptamine solution. (Final amine concentration in the assay is 200 µM: see below.) • 4. Substrate for monoamine oxidase-B • a. β-phenethylamine is obtained from Sigma Chemical Company. A 5 mM stock solution is made up in 0.01 N-hydrochloric acid. […]

acetylcholinesterase = target: T3, acetylcholinesterase (Rattus norvegicus, UniProt P37136); assay: biochemical; set-up: species or system Male Wistar rats; details: rat corpora striata homogenate; preincubated 10 minutes at 37°C; acetylthiocholine substrate 5 millimolar final; log-probit analysis; read-out: Inhibition of Acetylcholinesterase Activity IC50
T3 construct: corpora striata dissected free, weighted and homogenized in 19 volumes; from tissue; host or cells: rat brain corpora striata, crude homogenate
T3 sequence (P37136 32-614): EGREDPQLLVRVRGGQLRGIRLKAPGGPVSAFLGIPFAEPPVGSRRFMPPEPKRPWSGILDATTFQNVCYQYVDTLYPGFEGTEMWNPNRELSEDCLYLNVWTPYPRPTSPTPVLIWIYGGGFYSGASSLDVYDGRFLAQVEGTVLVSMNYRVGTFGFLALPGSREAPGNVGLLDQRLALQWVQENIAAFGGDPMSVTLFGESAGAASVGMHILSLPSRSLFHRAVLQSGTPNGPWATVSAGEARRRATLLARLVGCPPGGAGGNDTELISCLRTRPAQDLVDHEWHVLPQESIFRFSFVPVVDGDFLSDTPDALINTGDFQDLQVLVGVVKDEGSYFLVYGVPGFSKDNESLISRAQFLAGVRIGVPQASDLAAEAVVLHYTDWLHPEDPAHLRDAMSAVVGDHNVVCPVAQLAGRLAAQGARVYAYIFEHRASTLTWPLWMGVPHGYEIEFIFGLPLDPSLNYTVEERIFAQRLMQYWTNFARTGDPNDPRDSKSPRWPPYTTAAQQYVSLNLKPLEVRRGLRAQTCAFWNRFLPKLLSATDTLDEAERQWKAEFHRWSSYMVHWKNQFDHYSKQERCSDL
Procedure: 0.05M Phosphate Buffer (pH 7.2) A solution of monobasic sodium phosphate monohydrate (6.85 g) in distilled water (100 ml) is added to a solution of dibasic sodium phosphate heptahydrate (13.4 g) and distilled water (100 ml) until a pH of 7.2 was attained. The solution was diluted 1 to 10 with distilled water. • 2. […] 5,5-Dithiobisnitrobenzoic acid in Buffer The 0.05M Phosphate Buffer (pH 7.2) was added to 5.5-dithiobisnitrobenzoic acid to a total volume of 100 ml, i.e., a quantity sufficient (gs) to 100 ml. • 4. Stock Solution of Drug A 2 millimolar stock solution of the test drug is prepared in a quantity sufficient of either acetic acid or dimethyl sulfoxide to volume with 5,5-dithiobisnitrobenzoic acid in Buffer. […]
Male Wistar rats are decapitated, brains rapidly removed, corpora striata dissected free, weighted and homogenized in 19 volumes (approximately 7 mg protein/ml) of 0.05M Phosphate Buffer (pH 7.2) using a Potter-Elvejhem homogenizer. […] Enzyme activity is measured with a Beckman DU-50 spectrophotometer with the following software and instrument settings: • 1. […]
Blank values are determined for each run to control for non-enzymatic hydrolysis of substrate and these values are automatically subtracted by the Kindata program available on kinetics soft-pac module. This program also calculates the rate of absorbance change for each cuvette. […]

Structure (SMILES)	IC50 (monoamine oxidase-A) [µM]	IC50 (monoamine oxidase-B) [µM]	IC50 (acetylcholinesterase) [µM]
COc1cccc(CN2CCC3(CCc4c3n(C)c3ccccc43)CC2)c1 [1,4-Dihydro-1'-(3-methoxyphenyl)methyl-4-methylspiro[cyclopent[b]indole-3(2H), 4'piperidine]]	51.2	–	–
COc1ccc(CN2CCC3(CCc4c3n(C)c3ccccc43)CC2)cc1 [1,4-Dihydro-1'-(4-methoxyphenyl)methyl-4-methylspiro[cyclopent[b]indole-3(2H), 4'-piperidine]]	98.6	125	65.2
CNC(=O)Oc1ccc2c(c1)c1c(n2C)C2(CC1)CCN(Cc1ccccc1)CC2 [1,4-Dihydro-4-methyl-7-methylaminocarbonyloxy-1'-phenylmethylspiro[cyclopent[b]indole-3(2H), 4'-piperidine]]	–	–	10.5
COc1cc(Br)c2oc(C3CCNCC3)cc2c1 [brofaromine, reference compound]	0.18	–	–
